Experimental data taken from ChEMBL document CHEMBL3880419, “Modulators of sperm hypermobility and uses thereof” (2013).
Calls of active or inactive are those of the source. No cut-off for these calls is given here.

Legend:
[1] = tested on: Mus musculus; assay: In vivo inhibition of fertility in C57BL/6 male mouse administered in diet after 7 to 9 days; assay type: functional, organism-based
[2] = Toxicity in C57BL/6 female mouse assessed as effect on reproductive hormone levels administered in diet measured after prolonged compound treatment; details: in vivo, po
[3] = tested on: Mus musculus; assay: Reversible inhibition of fertility in C57BL/6 male mouse administered in diet for 2 months; assay type: functional; details: TDE = time-dependent effect
[4] = target: T1, Cation channel sperm-associated protein 1 (Mus musculus) (UniProt Q91ZR5); assay: Inhibition of CatSper1 channel […] in 129/SvJ x C57BL/6J mouse cauda epididymal sperm assessed as reduction in sperm hyperactivity after 5 mins by single sperm motility assay
T1 sequence (whole entry): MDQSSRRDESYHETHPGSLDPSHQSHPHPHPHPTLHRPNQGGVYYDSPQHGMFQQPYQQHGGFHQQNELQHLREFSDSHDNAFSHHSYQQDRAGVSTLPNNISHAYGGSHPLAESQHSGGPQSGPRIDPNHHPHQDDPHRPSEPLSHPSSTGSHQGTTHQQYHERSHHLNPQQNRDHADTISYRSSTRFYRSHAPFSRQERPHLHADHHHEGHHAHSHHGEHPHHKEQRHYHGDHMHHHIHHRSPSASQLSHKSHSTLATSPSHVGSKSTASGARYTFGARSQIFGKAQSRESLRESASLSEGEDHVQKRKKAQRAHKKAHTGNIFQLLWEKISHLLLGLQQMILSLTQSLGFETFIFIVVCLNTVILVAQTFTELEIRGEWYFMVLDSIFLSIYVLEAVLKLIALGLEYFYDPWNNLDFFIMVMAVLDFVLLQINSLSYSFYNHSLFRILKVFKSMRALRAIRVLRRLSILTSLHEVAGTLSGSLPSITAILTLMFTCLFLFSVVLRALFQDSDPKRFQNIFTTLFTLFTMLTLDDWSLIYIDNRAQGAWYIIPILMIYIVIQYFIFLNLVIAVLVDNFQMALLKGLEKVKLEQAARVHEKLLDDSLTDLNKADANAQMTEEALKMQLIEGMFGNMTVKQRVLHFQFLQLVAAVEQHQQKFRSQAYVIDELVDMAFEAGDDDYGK

[5] = Toxicity in C57BL/6 female mouse assessed as effect on serum biochemistry administered in diet measured after prolonged compound treatment; details: in vivo, po
[6] = Toxicity in C57BL/6 male mouse assessed as effect on serum biochemistry administered in diet measured after prolonged compound treatment; details: in vivo, po
[7] = target: T1, Cation channel sperm-associated protein 1 (Mus musculus); assay: Inhibition of wild type CatSper1 channel in mouse corpus epididymal sperm cells assessed decrease in Ca2+ current by whole cell patch clamp assay
[8] = Toxicity in C57BL/6 female mouse assessed as effect on animal behavior administered in diet measured after prolonged compound treatment; details: in vivo, po
[9] = Toxicity in C57BL/6 male mouse assessed as effect on reproductive hormone levels administered in diet measured after prolonged compound treatment; details: in vivo, po
[10] = tested on: Mus musculus; assay: Reversible inhibition of fertility in C57BL/6 female mouse administered in diet for 2 months; assay type: functional; details: TDE = time-dependent effect
[11] = Toxicity in C57BL/6 male mouse assessed as effect on animal behavior administered in diet measured after prolonged compound treatment; details: in vivo, po
[12] = tested on: Mus musculus; assay: In vivo inhibition of fertility in C57BL/6 female mouse administered in diet treated for 5 weeks followed by breeding of female mouse with nontreated age-matched male mouse for 4 days; assay type: functional, organism-based
[13] = target: T2, Cation channel sperm-associated protein 1 (Homo sapiens) (UniProt Q8NEC5); assay: Inhibition of CatSper1 channel in human sperm assessed as decrease in sperm hyperactivity after 5 mins by computer-assisted sperm analysis
T2 sequence (whole entry): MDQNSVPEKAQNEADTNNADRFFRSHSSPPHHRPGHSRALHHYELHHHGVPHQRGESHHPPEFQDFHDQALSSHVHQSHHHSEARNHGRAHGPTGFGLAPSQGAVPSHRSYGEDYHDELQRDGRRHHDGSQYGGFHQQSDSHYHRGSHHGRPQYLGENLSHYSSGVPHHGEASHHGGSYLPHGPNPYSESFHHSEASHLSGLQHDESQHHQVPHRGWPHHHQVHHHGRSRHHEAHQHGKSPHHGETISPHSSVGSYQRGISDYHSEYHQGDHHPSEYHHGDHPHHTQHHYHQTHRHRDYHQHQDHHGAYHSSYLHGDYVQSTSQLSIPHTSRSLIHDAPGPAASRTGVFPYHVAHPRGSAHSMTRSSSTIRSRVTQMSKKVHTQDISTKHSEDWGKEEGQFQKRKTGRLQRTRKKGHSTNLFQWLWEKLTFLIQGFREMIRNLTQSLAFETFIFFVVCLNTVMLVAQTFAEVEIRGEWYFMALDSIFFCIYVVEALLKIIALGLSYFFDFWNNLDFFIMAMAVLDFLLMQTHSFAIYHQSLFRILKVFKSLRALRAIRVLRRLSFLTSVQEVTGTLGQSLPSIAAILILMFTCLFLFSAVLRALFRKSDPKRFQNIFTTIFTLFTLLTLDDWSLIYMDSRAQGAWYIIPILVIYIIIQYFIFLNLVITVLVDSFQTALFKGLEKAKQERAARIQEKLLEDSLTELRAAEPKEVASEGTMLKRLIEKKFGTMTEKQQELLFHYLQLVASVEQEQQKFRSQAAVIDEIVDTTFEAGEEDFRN

[14] = target: T2, Cation channel sperm-associated protein 1 (Homo sapiens); assay: Inhibition of CatSper1 channel in human sperm assessed as sperm motility at 1 uM after 5 mins by computer-assisted sperm analysis (reference value: 68%); design: scale not given: the % may be the effect or the level left
[15] = target: T1, Cation channel sperm-associated protein 1 (Mus musculus); assay: Inhibition of CatSper1 currents in mouse spermatozoa isolated from corpus epididymis at 20 uM by whole cell patch clamp assay
[16] = target: T2, Cation channel sperm-associated protein 1 (Homo sapiens); assay: Inhibition of CatSper1 channel in human sperm assessed as sperm hyperactivity at 50 uM after 5 mins by computer-assisted sperm analysis (reference value: 10.5%); design: scale not given: the % may be the effect or the level left
[17] = target: T2, Cation channel sperm-associated protein 1 (Homo sapiens); assay: Inhibition of CatSper1 channel in human sperm assessed as sperm hyperactivity at 1 uM after 5 mins by computer-assisted sperm analysis (reference value: 10.5%); design: scale not given: the % may be the effect or the level left
[18] = target: T2, Cation channel sperm-associated protein 1 (Homo sapiens); assay: Inhibition of CatSper1 channel in human sperm assessed as sperm motility at 50 uM after 5 mins by computer-assisted sperm analysis (reference value: 68%); design: scale not given: the % may be the effect or the level left

| Structure (SMILES) | inhibition [1] | Activity [2] | inhibition [3] | inhibition [4] | Activity [5] | Activity [6] | inhibition [7] | Activity [8] | Activity [9] | inhibition [10] | Activity [11] | inhibition [12] | inhibition [13] | Activity [14] [%] | inhibition [15] | Activity [16] [%] | Activity [17] [%] | Activity [18] [%] |
| --- | --- | --- | --- | --- | --- | --- | --- | --- | --- | --- | --- | --- | --- | --- | --- | --- | --- | --- |
| CC(C)(C)C(=O)c1no[n+]([O-])c1C(=O)C(C)(C)C | Dose-dependent effect | Non-Toxic | Tde | Dose-dependent effect | Non-Toxic | Non-Toxic | Active | Non-Toxic | Non-Toxic | Tde | Non-Toxic | Active | Active | – | – | – | – | – |
| Cc1conc1C(=O)c1no[n+]([O-])c1C(=O)c1nocc1C | Dose-dependent effect | Non-Toxic | Tde | Dose-dependent effect | Non-Toxic | Non-Toxic | Active | Non-Toxic | Non-Toxic | Tde | Non-Toxic | Active | Active | – | – | – | – | – |
| O=C(c1ccccc1)c1no[n+]([O-])c1C(=O)c1ccccc1 | Dose-dependent effect | Non-Toxic | Tde | Dose-dependent effect | Non-Toxic | Non-Toxic | Active | Non-Toxic | Non-Toxic | Tde | Non-Toxic | Active | – | – | – | – | – | – |
| O=C(c1cccs1)c1no[n+]([O-])c1C(=O)c1cccs1 | Dose-dependent effect | Non-Toxic | Tde | Dose-dependent effect | Non-Toxic | Non-Toxic | Active | Non-Toxic | Non-Toxic | Tde | Non-Toxic | Active | – | 59 | Active | 1.6 | 6.2 | 70 |
| O=C(c1ccc(Cl)c(Cl)c1)c1no[n+]([O-])c1C(=O)c1ccc(Cl)c(Cl)c1 | Dose-dependent effect | Non-Toxic | Tde | Dose-dependent effect | Non-Toxic | Non-Toxic | Active | Non-Toxic | Non-Toxic | Tde | Non-Toxic | Active | Active | – | – | – | – | – |
